Assay results taken from patent US6756402B2, “Cyclipostins, process for their preparation and use thereof” (Aventis Pharma Deutschland GmbH, priority 2000, dated 2004).
Read-outs that look alike come from different tables or passages of the source.

How the values were obtained:
lipases = settings: background statement on the known methyl analogue; cited from earlier work
[1] = Solubility (characterization of the isolated substance)
HSL from rats = biological target: T1, HSL from rats (Rattus norvegicus, UniProt P15304); experiment: Inhibition of HSL from rats with NBD as substrate; assay type: biochemical
T1 construct: from tissue; host or cells: rat
T1 sequence (P15304 1-768 isoform P15304-2): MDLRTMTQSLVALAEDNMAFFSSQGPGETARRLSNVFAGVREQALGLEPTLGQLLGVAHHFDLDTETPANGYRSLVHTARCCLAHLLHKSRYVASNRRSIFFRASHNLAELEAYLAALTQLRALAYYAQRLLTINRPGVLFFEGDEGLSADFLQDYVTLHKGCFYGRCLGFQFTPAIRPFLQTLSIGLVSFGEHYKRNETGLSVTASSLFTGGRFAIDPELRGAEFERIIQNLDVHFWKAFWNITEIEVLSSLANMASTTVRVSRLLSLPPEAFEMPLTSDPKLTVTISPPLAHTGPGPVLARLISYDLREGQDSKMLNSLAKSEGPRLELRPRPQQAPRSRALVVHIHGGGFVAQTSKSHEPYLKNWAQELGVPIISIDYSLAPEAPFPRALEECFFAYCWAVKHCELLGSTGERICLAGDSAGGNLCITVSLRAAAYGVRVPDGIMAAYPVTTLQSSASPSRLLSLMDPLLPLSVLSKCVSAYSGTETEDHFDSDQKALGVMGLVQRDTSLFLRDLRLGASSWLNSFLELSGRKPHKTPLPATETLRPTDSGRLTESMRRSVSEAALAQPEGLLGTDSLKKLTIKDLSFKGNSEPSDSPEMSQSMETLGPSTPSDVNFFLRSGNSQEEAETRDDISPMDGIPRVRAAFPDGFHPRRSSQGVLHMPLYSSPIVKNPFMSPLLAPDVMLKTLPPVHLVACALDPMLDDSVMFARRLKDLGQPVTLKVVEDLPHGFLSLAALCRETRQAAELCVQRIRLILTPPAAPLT

[2] = test system: lipolysis in rat adipocytes; experiment: Inhibition of lipolysis in rat adipocytes; assay type: cell-based; settings: Adipocyte
[3] = biological target: T2, hormone-sensitive lipase (HSL) (Rattus norvegicus, UniProt P15304); experiment: Inhibition of partially purified hormone-sensitive lipase (HSL) from rats, [3H]trioleoylglycerol substrate; assay type: biochemical
T2 construct: Isolated rat lipocytes were obtained from epididymal fatty tissue of nontreated male rats; from tissue; host or cells: rat epididymal fat tissue lipocytes (Wistar), partially purified
T2 sequence (P15304 1-768 isoform P15304-2): T1 sequence (P15304 1-768 isoform P15304-2)
Protocol: Isolated rat lipocytes were obtained from epididymal fatty tissue of nontreated male rats (Wistar, 220-250 g) by collagenase treatment according to published procedures (e.g., S. Nilsson et al., Anal. Biochem. 158:399-407 (1986); G. Fredrikson et al., J. Biol. Chem. 256, 6311-6320 (1981); H. Tornquist et al., J. Biol. Chem. 251:813-819 (1976)). The lipocytes from 10 rats were washed three times by flotation with 50 ml of homogenization buffer in each case ([…] TRIS/HCl, pH 7.4, 0.25 M sucrose, 1 mM EDTA, 1 mM DTT, 10 μg/ml of leupeptin, 10 μg/ml of antipain, 20 μg/ml of pepstatin) and finally taken up in 10 ml of homogenization buffer. The lipocytes were homogenized in a Teflon-in-glass homogenizer (Braun-Melsungen) by means of 10 strokes at 1500 rpm and 15° C. The homogenisate was centrifuged (Sorvall SM24 tubes, 5000 rpm, 10 min, 4° C.). The lower layer between the overlying fatty layer and the pellet was removed and the centrifugation was repeated. The lower layer resulting from this was centrifuged again (Sorvall SM24 tubes, 20000 rpm, 45 min, 4° C.). The lower layer was removed and treated with 1 g of heparin-sepharose (Pharmacia-Biotech, CL-6B, washed 5× with 25 mM Tris/HCl, pH 7.4, 150 mM NaCl). After incubation for 60 min at 4° C. (shaken at intervals of 15 min), the batch was centrifuged (Sorvall SM24 tubes, 3000 rpm, 10 min, 4° C.). The supernatant was brought to pH 5.2 by addition of acetic acid and incubated at 4° C. for 30 min. The precipitates were collected by centrifugation (Sorvall SS34, 12000 rpm, 10 min, 4° C.) and suspended in 2.5 ml of 20 mM Tris/HCl, pH 7.0, 1 mM EDTA, 65 mM NaCl, 13% of sucrose, 1 mM DTT, 10 μg/ml of leupeptin/pepstatin/antipain. The suspension was dialyzed overnight at 4° C. against 25 mM Tris/HCl, pH 7.4, 50% of glycerol, 1 mM DTT, 10 μg/ml of leupeptin, pepstatin, and antipain, and then applied to a hydroxylapetite column (0.1 g per 1 ml of suspension, equilibrated with 10 mM potassium phosphate, pH 7.0, 30% of glycerol, 1 mM DTT). The column was washed with four volumes of equilibration buffer at a flow rate of 20 to 30 ml/h. The HSL was eluted with a volume of equilibration buffer which contained 0.5 M potassium phosphate, then dialyzed (see above), and was concentrated 5 to 10 times by ultrafiltration (Amicon Diaflo PM 10 Filter) at 4° C. The partially purified HSL could be stored at −70° C. for 4 to 6 weeks.
For the preparation of the substrates, 25-50 μCi of [^3H]trioleoylglycerol (in toluene), 6.8 μMol of unlabeled trioleoylglycerol and 0.6 mg of phospholipid (phosphatidylcholine/phosphatidylinositol 3:1 w/v) were mixed, dried by means of N2 and then taken up in 2 ml of 0.1 M KPi (pH 7.0) by ultrasonic treatment (Branson 250, microtips, setting 1-2, 2×1 min at a 1 min interval). After addition of 1 ml of KPi and fresh ultrasonic treatment (4×30 sec on ice at 30 sec intervals), 1 ml of 20% BSA (bovine serum albumin) (in KPi) was added (final concentration of trioleoylglycerol at 1.7 mM). For the reaction, 100 μl of substrate solution were pipetted into 100 μl of HSL solution (HSL prepared as above, diluted in 20 mM KPi, pH 7.0, 1 mM EDTA, 1 mM DTT, 0.02% BSA, 20 μg/ml of pepstatin, 10 μg/ml of leupeptin) and incubated at 37° C. for 30 min. After addition of 3.25 ml of methanol/chloroform/heptane (10:9:7) and of 1.05 ml 0.1 M K2CO3, 0.1 M boric acid (pH 10.5), the batch was mixed well and finally centrifuged (800×g, 20 min). After phase separation, one equivalent of the upper phase (1 ml) was removed and the radioactivity was determined by liquid scintillation measurement.
Substances were generally tested in four independent batches. The inhibition of the enzymatic activity of the HSL by a test substance was determined by the comparison with a noninhibited control reaction. The calculation of the IC50 value was carried out by means of an inhibitory curve using at least 10 concentrations of the test substance. […]

[4] = NBD (4-chloro-7-nitrobenzo-2-oxa-1,3-diazole) as substrate, read-out: concentrations inhibiting HSL from rats
[5] = trioleoylglycerol as substrate, read-out: IC50, inhibition of hormone-sensitive lipase from rats

Row | SMILES | selective lipase-inhibiting properties (lipases) | solubility in oxygen-containing organic solvents [1] | solubility in water and petroleum ether [1] | IC50 (HSL from rats; [4]) [nM] | IC50 [2] [nM] | IC50 [3, 5] [nM] | IC50 (HSL from rats) [nM] | IC50 [3] [nM]
1 | CO[P@]1(=O)OC[C@H]2COC(=O)C2=C(C)O1 [CGA 134 736] | no selective lipase-inhibiting properties | – | – | – | – | – | – | –
2 | CCCCC(O)CCCCCCCCCCCOP1(=O)OCC2COC(=O)C2=C(C)O1 (stereo not shown) [Cyclipostin A] | – | soluble | only slightly soluble | 4 to 10 | ~200 | 20 | – | –
3 | CCCC(O)CCCCCCCCCCCCO[P@]1(=O)OC[C@H]2COC(=O)C2=C(C)O1 (stereo partly shown) [Cyclipostin B] | – | soluble | only slightly soluble | – | – | – | – | –
4 | CCC(=O)CCCCCCCCCCCCCOP1(=O)OC[C@H]2COC(=O)C2=C(C)O1 (stereo partly shown) [Cyclipostin F] | – | soluble | only slightly soluble | – | – | – | – | –
5 | CCCCCCCCCCCCCCOP1(=O)OCC2COC(=O)C2=C(C)O1 (stereo not shown) [Cyclipostin N] | – | soluble | only slightly soluble | – | – | 450 | – | –
6 | CC1=C2C(=O)OCC2COP(=O)(OCCCCCCCCCCCCCC(C)C)O1 (stereo not shown) [Cyclipostin P2] | – | soluble | only slightly soluble | – | ~200 | – | 4 to 10 | 40
7 | CCCCCCCCCCCCCCCCOP1(=O)OCC2COC(=O)C2=C(C)O1 (stereo not shown) [Cyclipostin P] | – | soluble | only slightly soluble | – | ~200 | – | 4 to 10 | 30
8 | CC1=C2C(=O)OCC2COP(=O)(OCCCCCCCCCCCCC(C)C)O1 (stereo not shown) [Cyclipostin R2] | – | soluble | only slightly soluble | – | – | 220 | – | –
9 | CCCCCCCCCCCCCCCOP1(=O)OCC2COC(=O)C2=C(C)O1 (stereo not shown) [Cyclipostin R] | – | soluble | only slightly soluble | 4 to 10 | ~200 | 10 | – | –
10 | CCCCCCCCCCCCCCCCOP1(=O)OCC2COC(=O)C2=C(CC)O1 (stereo not shown) [Cyclipostin S] | – | soluble | only slightly soluble | – | – | 20 | – | –
11 | CCCC1=C2C(=O)OCC2COP(=O)(OCCCCCCCCCCCCCC(C)C)O1 (stereo not shown) [Cyclipostin T2] | – | soluble | only slightly soluble | – | – | 60 | – | –
12 | CCCCCCCCCCCCCCCCOP1(=O)OCC2COC(=O)C2=C(CCC)O1 (stereo not shown) [Cyclipostin T] | – | soluble | only slightly soluble | – | – | 200 | – | –
